Test results: ChEMBL document CHEMBL4507272 (2021)

Experiments:
Settings in all cases: Compound concentration 1000.0 nM
[1] = target: Tyrosine-protein kinase Fgr (Homo sapiens) (UniProt P09769)
[2] = target: SRSF protein kinase 2 (Homo sapiens) (UniProt P78362)
[3] = target: Cyclin-dependent kinase 2 (Homo sapiens) (UniProt P24941)
[4] = target: Uncharacterized serine/threonine-protein kinase SBK3 (Homo sapiens) (UniProt P0C264)
[5] = target: Mitogen-activated protein kinase kinase kinase 5 (Homo sapiens) (UniProt Q99683)
[6] = target: MAP kinase-activated protein kinase 5 (Homo sapiens) (UniProt Q8IW41)
[7] = target: Fibroblast growth factor receptor 3 (Homo sapiens) (UniProt P22607)
[8] = target: Mitogen-activated protein kinase kinase kinase 2 (Homo sapiens) (UniProt Q9Y2U5)
[9] = target: Serine/threonine-protein kinase Nek7 (Homo sapiens) (UniProt Q8TDX7)
[10] = tested on: Proto-oncogene tyrosine-protein kinase receptor Ret (Homo sapiens), P07949 [V804L]
[11] = target: Tyrosine-protein kinase JAK1 (Homo sapiens) (UniProt P23458)
[12] = target: Mitogen-activated protein kinase kinase kinase 13 (Homo sapiens) (UniProt O43283)
[13] = target: Protein-tyrosine kinase 2-beta (Homo sapiens) (UniProt Q14289)
[14] = target: Serine/threonine-protein kinase 16 (Homo sapiens) (UniProt O75716)
[15] = target: Interleukin-1 receptor-associated kinase 4 (Homo sapiens) (UniProt Q9NWZ3)
[16] = tested on: eIF-2-alpha kinase GCN2 (Homo sapiens), Q9P2K8 [S808G]

Measured: residual activity

Mitogen-activated protein kinase kinase kinase 5 (Homo sapiens), sequence (Q99683 whole entry): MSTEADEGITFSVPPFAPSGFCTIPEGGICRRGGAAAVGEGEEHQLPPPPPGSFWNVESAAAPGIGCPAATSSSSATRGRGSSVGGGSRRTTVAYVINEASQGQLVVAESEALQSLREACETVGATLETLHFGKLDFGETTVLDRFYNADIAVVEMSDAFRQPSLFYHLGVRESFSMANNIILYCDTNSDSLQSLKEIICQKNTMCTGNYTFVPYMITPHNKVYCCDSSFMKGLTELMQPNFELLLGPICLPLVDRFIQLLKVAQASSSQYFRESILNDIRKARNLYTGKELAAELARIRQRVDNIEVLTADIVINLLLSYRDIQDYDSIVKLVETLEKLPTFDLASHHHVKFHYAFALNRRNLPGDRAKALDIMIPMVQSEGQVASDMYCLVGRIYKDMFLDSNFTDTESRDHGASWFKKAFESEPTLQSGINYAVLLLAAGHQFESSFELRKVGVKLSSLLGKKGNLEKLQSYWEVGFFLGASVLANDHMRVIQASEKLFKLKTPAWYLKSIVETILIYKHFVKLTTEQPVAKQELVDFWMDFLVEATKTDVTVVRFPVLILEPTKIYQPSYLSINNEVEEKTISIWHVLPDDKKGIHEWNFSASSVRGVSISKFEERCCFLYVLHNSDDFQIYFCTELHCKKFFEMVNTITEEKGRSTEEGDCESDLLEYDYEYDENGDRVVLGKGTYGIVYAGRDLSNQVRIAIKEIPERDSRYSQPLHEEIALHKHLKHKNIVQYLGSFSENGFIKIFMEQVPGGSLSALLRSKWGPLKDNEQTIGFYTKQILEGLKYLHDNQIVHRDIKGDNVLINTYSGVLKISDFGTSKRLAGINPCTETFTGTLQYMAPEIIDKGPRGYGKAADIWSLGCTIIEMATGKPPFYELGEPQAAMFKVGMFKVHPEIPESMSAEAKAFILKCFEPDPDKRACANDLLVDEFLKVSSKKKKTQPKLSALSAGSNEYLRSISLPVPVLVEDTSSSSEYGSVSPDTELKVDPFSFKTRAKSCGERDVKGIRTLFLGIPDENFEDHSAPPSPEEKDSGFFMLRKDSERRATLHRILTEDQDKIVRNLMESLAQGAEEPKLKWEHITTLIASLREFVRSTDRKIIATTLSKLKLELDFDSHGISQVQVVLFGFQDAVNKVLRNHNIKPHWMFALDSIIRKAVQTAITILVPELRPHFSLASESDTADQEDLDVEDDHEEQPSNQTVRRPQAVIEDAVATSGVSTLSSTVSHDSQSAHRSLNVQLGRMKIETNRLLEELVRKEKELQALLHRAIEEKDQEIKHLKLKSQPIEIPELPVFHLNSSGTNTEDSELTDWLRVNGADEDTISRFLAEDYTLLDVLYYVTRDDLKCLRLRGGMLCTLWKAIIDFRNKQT
Mitogen-activated protein kinase kinase kinase 2 (Homo sapiens), sequence (Q9Y2U5 whole entry): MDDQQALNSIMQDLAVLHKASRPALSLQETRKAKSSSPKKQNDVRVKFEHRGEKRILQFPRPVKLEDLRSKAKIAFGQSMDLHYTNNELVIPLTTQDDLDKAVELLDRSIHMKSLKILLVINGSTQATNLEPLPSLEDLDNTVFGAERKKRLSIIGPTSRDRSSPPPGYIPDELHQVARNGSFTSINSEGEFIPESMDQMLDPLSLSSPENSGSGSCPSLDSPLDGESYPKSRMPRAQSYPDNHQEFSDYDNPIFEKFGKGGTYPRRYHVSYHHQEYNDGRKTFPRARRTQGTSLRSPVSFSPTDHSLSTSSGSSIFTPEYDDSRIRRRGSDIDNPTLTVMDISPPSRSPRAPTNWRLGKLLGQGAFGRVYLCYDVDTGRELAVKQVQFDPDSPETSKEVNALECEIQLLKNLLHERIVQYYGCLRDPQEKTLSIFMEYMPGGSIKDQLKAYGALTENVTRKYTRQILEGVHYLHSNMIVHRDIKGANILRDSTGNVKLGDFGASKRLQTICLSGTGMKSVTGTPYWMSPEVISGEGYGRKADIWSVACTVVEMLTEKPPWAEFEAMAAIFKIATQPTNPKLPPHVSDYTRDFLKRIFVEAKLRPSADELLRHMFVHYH
Fibroblast growth factor receptor 3 (Homo sapiens), sequence (P22607 23-806 limits assumed): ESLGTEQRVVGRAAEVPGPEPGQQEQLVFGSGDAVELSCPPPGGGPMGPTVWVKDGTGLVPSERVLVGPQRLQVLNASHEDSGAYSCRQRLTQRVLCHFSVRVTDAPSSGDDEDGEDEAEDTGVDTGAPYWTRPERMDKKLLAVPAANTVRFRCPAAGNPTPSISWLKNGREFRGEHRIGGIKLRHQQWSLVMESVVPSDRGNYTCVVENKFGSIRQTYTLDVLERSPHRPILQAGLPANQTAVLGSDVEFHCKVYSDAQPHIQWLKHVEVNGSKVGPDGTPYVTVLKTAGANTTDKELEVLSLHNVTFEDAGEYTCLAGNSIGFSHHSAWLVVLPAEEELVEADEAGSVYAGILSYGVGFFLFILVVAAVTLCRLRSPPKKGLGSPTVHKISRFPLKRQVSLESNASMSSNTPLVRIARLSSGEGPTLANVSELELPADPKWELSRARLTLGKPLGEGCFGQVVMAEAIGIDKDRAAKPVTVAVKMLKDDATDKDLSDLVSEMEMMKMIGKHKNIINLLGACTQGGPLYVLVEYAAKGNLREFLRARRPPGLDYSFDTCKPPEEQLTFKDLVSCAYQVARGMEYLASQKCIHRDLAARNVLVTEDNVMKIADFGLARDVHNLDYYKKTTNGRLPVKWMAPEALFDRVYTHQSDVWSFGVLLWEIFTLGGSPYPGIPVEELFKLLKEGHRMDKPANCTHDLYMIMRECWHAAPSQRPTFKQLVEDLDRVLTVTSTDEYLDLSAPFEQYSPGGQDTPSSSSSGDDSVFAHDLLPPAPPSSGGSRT
Uncharacterized serine/threonine-protein kinase SBK3 (Homo sapiens), sequence (P0C264 whole entry): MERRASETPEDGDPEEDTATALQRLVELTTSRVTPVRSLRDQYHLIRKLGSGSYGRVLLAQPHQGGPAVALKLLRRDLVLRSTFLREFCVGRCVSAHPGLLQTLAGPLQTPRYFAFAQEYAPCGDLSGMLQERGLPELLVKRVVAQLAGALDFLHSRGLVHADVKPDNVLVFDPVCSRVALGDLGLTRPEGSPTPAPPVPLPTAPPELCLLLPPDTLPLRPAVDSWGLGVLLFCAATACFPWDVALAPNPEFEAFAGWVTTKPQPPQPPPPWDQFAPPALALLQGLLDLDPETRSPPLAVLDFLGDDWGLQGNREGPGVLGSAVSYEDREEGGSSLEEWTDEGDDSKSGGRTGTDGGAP
Tyrosine-protein kinase JAK1 (Homo sapiens), sequence (P23458 whole entry): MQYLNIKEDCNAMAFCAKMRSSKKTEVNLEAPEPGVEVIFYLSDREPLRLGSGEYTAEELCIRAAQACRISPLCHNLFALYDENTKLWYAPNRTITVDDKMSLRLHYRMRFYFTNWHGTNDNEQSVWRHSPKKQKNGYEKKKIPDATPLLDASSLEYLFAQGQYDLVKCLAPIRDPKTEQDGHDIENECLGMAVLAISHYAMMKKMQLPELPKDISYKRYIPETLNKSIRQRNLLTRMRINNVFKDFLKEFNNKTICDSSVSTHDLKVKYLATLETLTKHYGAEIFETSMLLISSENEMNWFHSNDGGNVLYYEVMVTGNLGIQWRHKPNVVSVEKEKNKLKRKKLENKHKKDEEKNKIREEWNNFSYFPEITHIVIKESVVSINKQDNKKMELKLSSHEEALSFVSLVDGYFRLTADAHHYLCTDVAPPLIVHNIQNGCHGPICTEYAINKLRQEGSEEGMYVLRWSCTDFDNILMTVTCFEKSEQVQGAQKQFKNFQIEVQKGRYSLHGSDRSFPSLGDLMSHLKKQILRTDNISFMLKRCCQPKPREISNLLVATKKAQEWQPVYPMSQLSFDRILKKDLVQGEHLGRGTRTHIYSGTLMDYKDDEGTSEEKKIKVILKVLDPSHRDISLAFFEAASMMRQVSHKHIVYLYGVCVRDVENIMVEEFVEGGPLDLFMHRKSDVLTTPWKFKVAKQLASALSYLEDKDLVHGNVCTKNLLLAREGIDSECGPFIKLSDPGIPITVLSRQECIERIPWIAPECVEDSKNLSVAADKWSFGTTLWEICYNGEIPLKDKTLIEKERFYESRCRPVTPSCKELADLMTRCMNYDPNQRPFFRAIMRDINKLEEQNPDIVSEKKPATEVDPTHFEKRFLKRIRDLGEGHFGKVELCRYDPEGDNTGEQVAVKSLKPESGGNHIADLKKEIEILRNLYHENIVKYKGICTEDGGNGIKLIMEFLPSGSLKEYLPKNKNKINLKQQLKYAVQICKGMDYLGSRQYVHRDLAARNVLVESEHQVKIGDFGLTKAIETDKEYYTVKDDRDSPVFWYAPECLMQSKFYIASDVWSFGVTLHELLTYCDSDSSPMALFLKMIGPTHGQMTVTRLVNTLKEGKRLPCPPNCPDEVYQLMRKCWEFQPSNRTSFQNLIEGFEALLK
Interleukin-1 receptor-associated kinase 4 (Homo sapiens), sequence (Q9NWZ3 whole entry): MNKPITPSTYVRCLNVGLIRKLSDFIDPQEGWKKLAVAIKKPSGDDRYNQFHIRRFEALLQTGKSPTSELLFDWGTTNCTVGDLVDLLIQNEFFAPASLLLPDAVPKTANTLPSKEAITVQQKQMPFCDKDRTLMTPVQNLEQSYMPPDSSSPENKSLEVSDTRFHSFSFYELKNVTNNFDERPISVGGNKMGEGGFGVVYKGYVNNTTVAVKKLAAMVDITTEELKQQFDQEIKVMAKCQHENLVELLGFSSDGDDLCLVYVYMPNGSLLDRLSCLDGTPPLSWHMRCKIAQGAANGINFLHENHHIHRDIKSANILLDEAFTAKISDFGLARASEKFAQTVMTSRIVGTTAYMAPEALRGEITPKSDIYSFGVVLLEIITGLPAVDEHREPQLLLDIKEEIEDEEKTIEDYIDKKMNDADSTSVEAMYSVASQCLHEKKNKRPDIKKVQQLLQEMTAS
Serine/threonine-protein kinase 16 (Homo sapiens), sequence (O75716 whole entry): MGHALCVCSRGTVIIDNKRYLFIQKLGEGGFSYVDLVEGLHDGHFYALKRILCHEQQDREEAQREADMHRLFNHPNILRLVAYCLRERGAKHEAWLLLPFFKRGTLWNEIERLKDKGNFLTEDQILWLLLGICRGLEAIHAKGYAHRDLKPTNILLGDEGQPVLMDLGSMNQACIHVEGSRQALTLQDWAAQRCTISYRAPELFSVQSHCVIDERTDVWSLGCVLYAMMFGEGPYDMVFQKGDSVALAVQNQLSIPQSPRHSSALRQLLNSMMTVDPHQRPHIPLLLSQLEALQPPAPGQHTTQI

CC(=O)C1=C(C)N(c2cccc(C(F)(F)F)c2)C(=O)N[C@@H]1c1ccc(C#N)nc1 [BAY-678]
inactive: [1] 86.7% | [2] 100% | [3] 100% | [4] 100% | [5] 94.8% | [6] 100% | [7] 96.4% | [8] 100% | [9] 100% | [10] 97.4% | [11] 85.9% | [12] 92.4% | [13] 100% | [14] 84.6% | [15] 100% | [16] 56.9%
